Literature values, collected in patent US20160076057A1, “INHIBITION OF METHANE AND HYDROGEN SULFIDE PRODUCTION IN ANAEROBIC DIGESTER ANIMAL FARMS, LANDFILLS, SEDIMENTS AND SEWER SYSTEMS” (Innovative Environmental Technologies, Inc., priority 2014, published 2016).

Key:
[1] = test system: F420-dependent NADP oxidoreductase enzyme; details: Sharma et al. (2011); for affinity for the model protein compared to natural ligand F420: 3D model structure, F420 binding cavity
[2] = test system: pure methanogenic bacteria; details: Wolin and Miller (2005)
cellulolytic bacteria = details: Wolin and Miller (2005)
Methanobrevibacter = details: Miller and Wolin (2001)
non-methanogens = details: Miller and Wolin (2001)

Row | Compound | affinity for the model protein compared to natural ligand F420 [1] | blocking the activity site for methane production [1] | growth and activity of pure methanogenic bacteria [2] | effect on cellulolytic bacteria (cellulolytic bacteria) | methane formation (Methanobrevibacter) | concentration that completely inhibited growth (Methanobrevibacter; per ml of culture medium) | IC50 (Methanobrevibacter; per ml of culture medium, read-out: concentration giving 50% inhibition of growth) | populations of the non-methanogens (non-methanogens)
1 | CC[C@H](C)C(=O)O[C@H]1CCC=C2C=C[C@H](C)[C@H](CC[C@@H]3C[C@@H](O)CC(=O)O3)[C@H]21 [compactin, compactin (mevastatin)] | more affinity | very effective | – | – | – | – | – | –
2 | CC[C@H](C)C(=O)O[C@H]1C[C@@H](C)C=C2C=C[C@H](C)[C@H](CC[C@@H]3C[C@@H](O)CC(=O)O3)[C@H]21 [lovastatin, Lovastatin] | more affinity | very effective | significantly reduced | without any negative effect | significantly inhibited | 10 nmol/mL | 4 µM | not affected
